Like-named read-outs stand apart in the source and are kept apart here. Marks after values point to notes of the source that are not given here.
Legend:
Type in all cases: in vivo
Fusarium graminearum = conditions: wheat head scab
[1] = test system: Erysiphe graminis f. sp. tritici; experiment: Test A: wheat powdery mildew, preventive spray on wheat seedlings, disease rating
Summary of the method: (§1)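 Compounds were dissolved in acetone (3% of final volume), then suspended in 50/50 acetone/water with 250 ppm polyhydric alcohol ester surfactant and sprayed to run-off on wheat seedlings. Unless marked otherwise, values are at 200 ppm (equivalent to 500 g/ha); some are at 40 or 50 ppm.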

Alternaria solani = experiment: Test H: tomato early blight, preventive spray on tomato seedlings, disease rating
Summary of the method: (§2)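 Tomato seedlings sprayed to run-off, as a preventive treatment, with compound suspended in acetone/water (50/50) containing 250 ppm Trem 014 surfactant; 200 ppm equals 500 g/ha. Disease then rated. Values are at 200 ppm unless marked * (40 ppm) or ** (50 ppm).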

Botrytis cinerea = experiment: Test F: tomato Botrytis, preventive spray on tomato seedlings, disease rating
Summary of the method: as §2

Septoria tritici = experiment: Test D: wheat leaf blotch, preventive spray on wheat seedlings, disease rating
Summary of the method: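 Wheat seedlings sprayed to run-off with compound in acetone/water containing 250 ppm Trem 014 (200 ppm ≈ 500 g/ha; some results at 40 or 50 ppm), inoculated next day with Septoria tritici spores. Held 48 h saturated at 24 °C, then 19 days at 20 °C before disease rating.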

[2] = test system: Puccinia recondita f. sp. tritici; experiment: Test B: wheat leaf rust, preventive spray on wheat seedlings, disease rating
Summary of the method: as §1

Septoria nodorum = experiment: Test C: wheat glume blotch, preventive spray on wheat seedlings, disease rating
Summary of the method: as §1

[3] = 200 ppm, 100 = 100% disease control, 0 = no control relative to controls
[4] = 40 ppm (*), 100 = 100% disease control, 0 = no control relative to controls

| SMILES | Percentage Disease Control, Test E (Fusarium graminearum; 40 ppm (*)) | Percentage Disease Control, Test A ([1]; 40 ppm (*)) | Percentage Disease Control, Test D (Septoria tritici; 40 ppm (*)) | Percentage Disease Control, Test B ([2]; 40 ppm (*)) | Percentage Disease Control, Test C (Septoria nodorum; 40 ppm (*)) | Percentage Disease Control, Test H (Alternaria solani; 200 ppm) | Percentage Disease Control, Test F (Botrytis cinerea; 200 ppm) | Percentage Disease Control, Test C (Septoria nodorum; 200 ppm) | further results |
| --- | --- | --- | --- | --- | --- | --- | --- | --- | --- |
| COC(=O)NOc1cc(-c2cccc(Cl)c2)ccc1Cl [Cmpd 19] | 99* % | 99* % | 98* % | 99* % | 97* % |  |  |  | Percentage Disease Control, Test H (Alternaria solani; 40 ppm (*)): 63* %; Percentage Disease Control, Test F (Botrytis cinerea; 40 ppm (*)): 0* % |
| COC(=O)NCc1cc(-c2ccn(S(=O)(=O)N(C)C)n2)ccc1Cl [Cmpd 35] |  |  |  |  |  | 0% | 0% | 0% | Percentage Disease Control, Test E (Fusarium graminearum; 200 ppm): 0%; Percentage Disease Control, Test A ([1]; 200 ppm): 76%; Percentage Disease Control, Test D (Septoria tritici; 200 ppm): 100%; Percentage Disease Control, Test B ([2]; 200 ppm): 76% |
| COC(=O)NCc1cc(-c2ccn(CCCC(c3ccc(F)cc3)c3ccc(F)cc3)n2)ccc1Cl [Cmpd 36] |  | 93* % | 97* % | 99* % | 99* % | 78% | 0% |  | Percentage Disease Control, Test E (Fusarium graminearum; 200 ppm): 26% |
| COC(=O)NCc1cc(-c2ccn(Cc3ccccc3Cl)n2)ccc1Cl [Cmpd 37] | 99* % | 99* % | 100* % | 100* % | 100* % | 0% | 0% |  |  |
| C#CCCCn1nc(-c2ccc(Cl)c(CNC(=O)OC)c2)cc1C [Cmpd 39] | 91* % | 99* % | 100* % | 100* % | 99* % | 0% | 0% |  |  |
| COC(=O)NCc1cc(-c2cc(C)n(CCC[Si](C)(C)C)n2)ccc1Cl [Cmpd 40] | 13* % | 99* % | 100* % | 100* % | 99* % |  |  |  | Percentage Disease Control, Test H (Alternaria solani; 40 ppm (*)): 50* %; Percentage Disease Control, Test F (Botrytis cinerea; 40 ppm (*)): 0* % |
| COC(=O)NCc1cc(-c2ccn(CCCC(C)C)n2)ccc1Cl [Cmpd 41] | 99* % |  | 98* % | 100* % |  | 0% | 0% | 100% | Percentage Disease Control, Test A ([1]; 200 ppm): 99% |
| COC(=O)NCc1cc(-c2ccn(CCCc3ccccc3)n2)ccc1Cl [Cmpd 42] | 100* % | 98* % | 100* % | 100* % | 100* % | 0% | 0% |  |  |
| COC(=O)NCc1cc(-c2ccn(CCCF)n2)ccc1Cl [Cmpd 43] |  |  |  |  |  | 0% | 0% | 95% | Percentage Disease Control, Test E (Fusarium graminearum; 200 ppm): 94%; Percentage Disease Control, Test A ([1]; 200 ppm): 91%; Percentage Disease Control, Test D (Septoria tritici; 200 ppm): 93%; Percentage Disease Control, Test B ([2]; 200 ppm): 99% |
| COC(=O)NCc1cc(-c2cc(C(F)(F)F)n(CCC[Si](C)(C)C)n2)ccc1Cl [Cmpd 45] |  | 99* % | 99* % | 100* % |  | 0% | 0% | 100% | Percentage Disease Control, Test E (Fusarium graminearum; 200 ppm): 26% |
| CCCCn1ccc(-c2ccc(Cl)c(CNC(=O)OC)c2)n1 [Cmpd 46] | 94* % | 94* % | 91* % | 99* % |  | 0% | 0% | 99% |  |
| COC(=O)NCc1cc(-c2nn(CCC[Si](C)(C)C)cc2Cl)ccc1Cl [Cmpd 47] |  | 98* % | 99* % | 100* % | 100* % | 66% | 0% |  | Percentage Disease Control, Test E (Fusarium graminearum; 200 ppm): 94% |
| COC(=O)NCc1cc(-c2ccn(-c3ccc(C)cn3)n2)ccc1Cl [Cmpd 48] | 94* % | 65* % | 99* % | 100* % | 99* % |  |  |  | Percentage Disease Control, Test H (Alternaria solani; 40 ppm (*)): 99* %; Percentage Disease Control, Test F (Botrytis cinerea; 40 ppm (*)): 0* % |
| COC(=O)NCc1cc(-c2ccn(-c3cccc(C)n3)n2)ccc1Cl [Cmpd 49] | 99* % |  | 100* % | 100* % |  |  | 0% | 99% | Percentage Disease Control, Test A ([1]; 200 ppm): 79%; Percentage Disease Control, Test H (Alternaria solani; 40 ppm (*)): 99* % |
| COC(=O)NCc1cc(C(C)=NOC[Si](C)(C)C)ccc1Cl [Compound 6] | 68* % | 99* % | 100* % | 100* % | 96* % |  |  |  |  |
| CC[Si](C)(C)CON=C(C)c1ccc(Cl)c(CNC(=O)OC)c1 [Compound 7] | 0* % | 100* % | 100* % | 100* % | 99* % |  |  |  |  |
| COC(=O)NCc1cc(C(C)=NOC[Si](C)(C)c2ccccc2)ccc1Cl [Compound 15] |  | 100* % | 100* % | 100* % | 100* % | 33% | 0% |  |  |
| COC(=O)NCc1cc(C(C)=NOC[Si](C)(C)c2ccc(F)cc2)ccc1Cl [Compound 16] |  | 99* % | 100* % | 100* % | 100* % |  | 67% |  | Percentage Disease Control, Test H (Alternaria solani; 40 ppm (*)): 95* % |
| COC(=O)NCc1cc(C(C)=NOC[Si](C)(C)Cc2ccccc2)ccc1Cl [Compound 17] |  |  | 100* % | 99* % |  | 38% | 0% | 100% | Percentage Disease Control, Test A ([1]; 200 ppm): 67% |
| COC(=O)NCc1cc(-c2cnn(Cc3ccc(C)cc3)n2)ccc1Cl [Compound 146] |  |  |  |  |  |  |  |  | Percentage Disease Control, Test A [1, 3]: 52%; Percentage Disease Control, Test H (Alternaria solani; [3]): 22%; Percentage Disease Control, Test F (Botrytis cinerea; [3]): 0%; Percentage Disease Control, Test D (Septoria tritici; [3]): 93%; Percentage Disease Control, Test B [2, 3]: 93%; Percentage Disease Control, Test C (Septoria nodorum; [3]): 99% |
| COC(=O)NCc1cc(-c2cnn(-c3ccc(Cl)cc3)n2)ccc1Cl [Compound 147] |  |  |  |  |  |  |  |  | Percentage Disease Control, Test A [1, 4]: 100* %; Percentage Disease Control, Test H (Alternaria solani; [3]): 15%; Percentage Disease Control, Test F (Botrytis cinerea; [3]): 61%; Percentage Disease Control, Test D (Septoria tritici; [4]): 100* %; Percentage Disease Control, Test B [2, 4]: 99* %; Percentage Disease Control, Test C (Septoria nodorum; [4]): 99* % |

From patent US9198433B2, “Substituted benzene fungicides” (E I DU PONT DE NEMOURS AND COMPANY, priority 2007, dated 2015)
